Assay [1] has as its system IL-17 production by CD4 T cells. Nature of the assay: Human Th17 assay (IL-17 production by CD4 T cells under Th17 differentiation conditions). The format is cell-based. To be noted: IL-17 in supernatant after 3 days. On the procedure:
The human Th17 assay tests the effect of RORγt modulatory compounds on IL-17 production by CD4 T cells under conditions which favor Th17 differentiation. Total CD4^+ T cells were isolated from the peripheral blood mononuclear cells (PBMC) of healthy donors using a CD4^+ T cell isolation kit II, following the manufacturer's instructions (Miltenyi Biotec). […] 50 μL of compound at titrated concentrations in DMSO were added into each well at final DMSO concentration at 0.2%. Cells were incubated for 1 hour, then 50 μL of Th17 cell differentiation medium was added to each well. The final concentrations of antibodies and cytokines (R&D Systems) in differentiation medium were: 3×10^6/mL anti-CD3/CD28 beads (prepared using human T cell activation/expansion kit, Miltenyi Biotec), 10 μg/mL anti-IL4, 10 μg/mL anti-IFNγ, 10 ng/mL IL113, 10 ng/mL IL23, 50 ng/mL IL6, 3 ng/mL TGFβ and 20 U/mL IL2. Cells were cultured at 37° C. and 5% CO2 for 3 days. Supernatants were collected and the accumulated IL-17 in culture was measured by using MULTI-SPOT® Cytokine Plate following manufacture's instruction (Meso Scale Discovery). The plate was read using Sector Imager 6000, and IL-17 concentration was extrapolated from the standard curve. The IC50s were determined by GraphPad.

The target in assay [2] is T1, human RORγt ligand binding domain (RORγt LBD) (Homo sapiens, UniProt P51449).
T1 construct: His-tag (N); TurboTEV protease cleavage site (ENLYFQG) (N); made in house; host or cells: E. coli (pHIS1, modified pET vector)
T1 sequence (P51449 with tags, fused parts or gaps): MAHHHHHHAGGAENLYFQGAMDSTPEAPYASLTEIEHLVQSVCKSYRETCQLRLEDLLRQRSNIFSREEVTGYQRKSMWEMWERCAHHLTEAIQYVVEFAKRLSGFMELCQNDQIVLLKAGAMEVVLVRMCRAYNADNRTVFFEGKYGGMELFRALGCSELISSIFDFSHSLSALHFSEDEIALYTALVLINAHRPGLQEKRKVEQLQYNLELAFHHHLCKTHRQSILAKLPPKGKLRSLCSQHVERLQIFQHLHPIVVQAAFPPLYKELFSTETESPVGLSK
Put plainly: RORγt ThermoFluor assay (thermal shift, ligand binding affinity). To be noted: estimated from concentration response of thermal shift. Summed up: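 Thermal shift of 0.065 mg/mL RORγt with 60 μM 1,8-ANS in 100 mM Hepes pH 7.0, 10 mM NaCl, 2.5 mM GSH, 0.002% Tween-20. Compounds in 1:2 series from 10 mM DMSO stock. Dye fluorescence (500 nm emission) tracked versus temperature; ΔTm used to derive KD.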

In another assay the target is T2, human RORγt LBD (Homo sapiens, UniProt P51449).
T2 construct: expressed in transfected cells
T2 sequence (P51449 258-518): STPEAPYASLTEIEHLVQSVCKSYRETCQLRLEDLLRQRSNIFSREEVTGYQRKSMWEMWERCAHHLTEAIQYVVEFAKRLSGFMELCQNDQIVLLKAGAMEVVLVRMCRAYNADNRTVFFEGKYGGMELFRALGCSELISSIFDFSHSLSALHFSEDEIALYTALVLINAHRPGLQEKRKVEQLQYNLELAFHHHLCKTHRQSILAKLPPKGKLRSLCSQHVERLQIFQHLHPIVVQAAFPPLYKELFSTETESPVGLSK
Put plainly: RORγt reporter assay (GAL4-RORγt LBD luciferase in HEK293T cells). In kind it is cell-based. To be noted: for IC50 / RORγt reporter Assay, % inhibition @ 6 μM: HEK293T cells; for IC50: 24 hours compound treatment; for inhibition at 6 µM: HEK-293T, read-out: RORγt reporter Assay, % inhibition @ 6 μM, HEK293T cells, 6 μM compound; for RORγt reporter Assay, % inhibition @ 6 μM: 6 μM compound. Summed up:
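HEK293T cells transiently co-transfected with pBIND (GAL4 DBD fused to wild-type human RORγt LBD, plus SV40-driven renilla luciferase) and pGL4.31 GAL4-responsive firefly luciferase reporter. Plated in phenol-red-free DMEM with 5% lipid-reduced FCS and treated with compound for 24 h. Firefly/renilla luminescence ratio plotted against compound concentration.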
For orientation: Reporter assays use an easily measured gene product as a stand-in for the process of interest.

Where “and” joins values, the source holds several entries; their conditions need not be identical. Identical values can stand only once. Counter-ions that a name gives are not always drawn.

As usually defined, the IC50 is the concentration that gives 50% inhibition. One may read the Kd as the concentration at which binding is half-saturated. For orientation: inhibition means the relative decrease from the control value, in per cent.

Regarding `CN(C)c1nc2ccc(C(O)(c3cccnc3)c3cccc(Cl)c3)cc2c(Cl)c1-c1ccccc1` (stereo not drawn) [Example 41, [4-Chloro-2-(dimethylamino)-3-phenylquinolin-6-yl](3-chlorophenyl)pyridin-3-ylmethanol•TFA], 200 nM corresponded to half-maximal inhibition in assay [1] (Homo sapiens, CD4+ T, 72 h) (IC50). For the same compound, the Kd in assay [2] is 23 nM. Also, at human RORγt LBD, the IC50 is 110 nM and ~100 nM; the inhibition at 6 µM was found to be 98%.
Take `Cn1cncc1C(O)(c1ccc(Cl)cc1)c1ccc2nc(Cl)c(-c3ccccc3Cl)c(Cl)c2c1` (racemic) [Example 153a, (4-Chlorophenyl)(2,4-dichloro-3-(2-chlorophenyl)quinolin-6-yl)(1-methyl-1H-imidazol-5-yl)methanol]: the IC50 was 480 nM in assay [1] (Homo sapiens, CD4+ T, 72 h); roughly 700 nM in assay [1]; 230 nM and ~400 nM against human RORγt LBD. Further, the Kd in assay [2] was 71 nM. In addition, the inhibition at 6 µM at human RORγt LBD turned out to be 96%.
In assay [1], `O=C(O)C(F)(F)F.OC(c1cccnc1)(c1cccc(Cl)c1)c1ccc2nc(C(F)(F)F)c(-c3ccccc3)c(C(F)(F)F)c2c1` (stereo not drawn) [Example 165, (3-Chlorophenyl)(3-phenyl-2,4-bis(trifluoromethyl)quinolin-6-yl)(pyridin-3-yl)methanol•TFA] returned an IC50 of 97 nM. In addition, the Kd in assay [2] was 2.4 nM. Also, on human RORγt LBD, the “RORγt reporter Assay, % inhibition @ 6 μM” value worked out at 98% and the IC50 was determined as 48 nM.
Consider `COc1nc2c(C)cc(C(O)(c3ccc(C(F)(F)F)nc3)c3cncn3C)cc2c(C#N)c1-c1cccc(F)c1` (single isomer, unassigned) [Example 179c, 3-(3-Fluorophenyl)-6-(hydroxy(1-methyl-1H-imidazol-5-yl)(6-(trifluoromethyl)pyridin-3-yl)methyl)-2-methoxy-8-methylquinoline-4-carbonitrile], for which the IC50 in assay [1] (Homo sapiens, CD4+ T, 72 h) is roughly 1000 nM; against human RORγt LBD, 480 nM. Further, the Kd in assay [2] was 63 nM. The “RORγt reporter Assay, % inhibition @ 6 μM” value on human RORγt LBD (6 µM) is reported as 96%.
`COc1nc2c(C)cc(C(O)(c3ccc(C(F)(F)F)nc3)c3cncn3C)cc2c(Cl)c1-c1ccc(OC(F)(F)F)cc1` (single isomer, unassigned) [Example 183b, (4-Chloro-2-methoxy-8-methyl-3-(4-(trifluoromethoxy)phenyl)quinolin-6-yl)(1-methyl-1H-imidazol-5-yl)(6-(trifluoromethyl)pyridin-3-yl)methanol]: the IC50 in assay [1] (Homo sapiens, CD4+ T, 72 h) is 1200 nM; against human RORγt LBD, greater than 6000 nM. Besides, the Kd in assay [2] is 3.7 nM. For the same compound, the “RORγt reporter Assay, % inhibition @ 6 μM” value on human RORγt LBD (6 µM) is listed as 34%.
`CCN(CC)c1nc2ccc(C(O)(c3ccncc3)c3cncn3C)cc2c(OC)c1-c1ccccc1` (stereo not drawn) [Example 105, [2-(Diethylamino)-4-methoxy-3-phenylquinolin-6-yl](1-methyl-1H-imidazol-5-yl)pyridin-4-ylmethanol•TFA] had an IC50 in assay [1] (Homo sapiens, CD4+ T, 72 h) of 190 nM. Moreover, the Kd in assay [2] is 39 nM. Further, on human RORγt LBD, the IC50 is 150 nM and the inhibition at 6 µM came to 101%.
In assay [1] (Homo sapiens, CD4+ T, 72 h), `COc1ccc(C(O)(c2ccc3nc(Cl)c(-c4ccccc4)c(Cl)c3c2)c2cncn2C)cn1` (stereo not drawn) [Example 10, (2,4-Dichloro-3-phenylquinolin-6-yl)(6-methoxypyridin-3-yl)(1-methyl-1H-imidazol-5-yl)methanol•TFA] had a concentration for half-maximal inhibition (IC50) of 590 nM. Moreover, in assay [2], the Kd is 29 nM. Moreover, on human RORγt LBD, the IC50 worked out at 150 nM and the inhibition at 6 µM was 98%.
As for `OC(c1ccccc1)(c1cccnc1)c1ccc2nc(Cl)c(-c3ccccc3)c(Cl)c2c1` (stereo not drawn) [Example 2, (2,4-Dichloro-3-phenylquinolin-6-yl)(phenyl)(pyridin-3-yl)methanol], the IC50 is 620 nM in assay [1] (Homo sapiens, CD4+ T, 72 h) and roughly 700 nM in assay [1].
Turning to `Cn1cncc1C(O)(c1ccc(C(F)(F)F)nc1)c1ccc2nc(C(F)(F)F)c(-c3ccccc3)c(C#N)c2c1` (single isomer, unassigned) [Example 173c, 6-(Hydroxy(1-methyl-1H-imidazol-5-yl)(6-(trifluoromethyl)pyridin-3-yl)methyl)-3-phenyl-2-(trifluoromethyl)quinoline-4-carbonitrile], in assay [1] (Homo sapiens, CD4+ T, 72 h), the IC50 worked out at 130 nM. In addition, the “RORγt reporter Assay, % inhibition @ 6 μM” value on human RORγt LBD (6 µM) is recorded as 95%.
`Cn1cncc1C(O)(c1ccnc(F)c1)c1ccc2nc(Cl)c(-c3ccccc3)c(Cl)c2c1` (stereo not drawn) [Example 86, (2,4-Dichloro-3-phenylquinolin-6-yl)(2-fluoropyridin-4-yl)(1-methyl-1H-imidazol-5-yl)methanol•TFA] returned an IC50 in assay [1] (Homo sapiens, CD4+ T, 72 h) of 37 nM.
Same read-out and setting: to `Cc1nc(C)c(C(O)(c2ccc3nc(Cl)c(-c4ccccc4)c(Cl)c3c2)c2cncn2C)s1` (stereo not drawn) [Example 143, (2,4-Dichloro-3-phenylquinolin-6-yl)(2,4-dimethylthiazol-5-yl)(1-methyl-1H-imidazol-5-yl)methanol] belongs 20 nM.
In turn, `Cn1cncc1C(O)(c1ccc(Cl)cc1)c1ccc2nc(Cl)c(-c3ccccc3)c(Cl)c2c1` (racemic) [Example 119a, (4-Chlorophenyl)(2,4-dichloro-3-phenylquinolin-6-yl)(1-methyl-1H-imidazol-5-yl)methanol] showed an IC50 in assay [1] (Homo sapiens, CD4+ T, 72 h) of 1800 nM.
In assay [1], `Cn1cncc1C(O)(c1ccc(Cl)cc1)c1ccc2nc(Cl)c(-c3ccccc3)c(Cl)c2c1` (single isomer, unassigned) [Example 119b, (4-Chlorophenyl)(2,4-dichloro-3-phenylquinolin-6-yl)(1-methyl-1H-imidazol-5-yl)methanol] returned an IC50 of 15000 nM.
The compound `Cn1cncc1C(O)(c1ccncc1)c1ccc2nc(Cl)c(-c3ccccc3)c(Cl)c2c1` (stereo not drawn) [Example 16, (2,4-Dichloro-3-phenylquinolin-6-yl)(1-methyl-1H-imidazol-5-yl)(pyridin-4-yl)methanol] yielded an IC50 in assay [1] (Homo sapiens, CD4+ T, 72 h) of 130 nM.
In assay [1] (Homo sapiens, CD4+ T, 72 h), `Cc1cc(C(O)(c2ccc3nc(Cl)c(-c4ccccc4)c(Cl)c3c2)c2cncn2C)ccn1` (stereo not drawn) [Example 67, (2,4-Dichloro-3-phenylquinolin-6-yl)(1-methyl-1H-imidazol-5-yl)(2-methylpyridin-4-yl)methanol•TFA] showed an IC50 of 27 nM.
For `Cn1cncc1C(O)(c1ccc(Cl)cc1)c1ccc2nc(Cl)c(-c3ccccc3)c(Cl)c2c1` (single isomer, unassigned) [Example 119c, (4-Chlorophenyl)(2,4-dichloro-3-phenylquinolin-6-yl)(1-methyl-1H-imidazol-5-yl)methanol], the IC50 in assay [1] (Homo sapiens, CD4+ T, 72 h) was determined as 700 nM.
For `Cn1cncc1C(O)(c1cccnc1)c1ccc2nc(Cl)c(-c3ccccc3)c(Cl)c2c1` (stereo not drawn) [Example 49, (2,4-Dichloro-3-phenylquinolin-6-yl)(1-methyl-1H-imidazol-5-yl)(pyridin-3-yl)methanol], the IC50 in assay [1] (Homo sapiens, CD4+ T, 72 h) worked out at 410 nM.
Turning to `CN(C)c1nc2ccc(C(O)(c3ccncc3)c3cncn3C)cc2c(Cl)c1-c1ccccc1` (stereo not drawn) [Example 48a, (4-Chloro-2-(dimethylamino)-3-phenylquinolin-6-yl)(1-methyl-1H-imidazol-5-yl)pyridin-4-ylmethanol•TFA], the IC50 in assay [1] (Homo sapiens, CD4+ T, 72 h) turned out to be 19 nM.
For `Cn1cncc1C(O)(c1ccncc1)c1ccc2nc(N3CCN(c4ccccc4)CC3)c(-c3ccccc3)c(Cl)c2c1` (stereo not drawn) [Example 77, [4-Chloro-3-phenyl-2-(4-phenylpiperazin-1-yl)quinolin-6-yl](1-methyl-1H-imidazol-5-yl)pyridin-4-ylmethanol•TFA], in assay [2], the Kd is 1100 nM. Also, on human RORγt LBD, the IC50 was roughly 4000 nM and the inhibition at 6 µM is 75%.

(Values after US9309222B2, “Phenyl linked quinolinyl modulators of RORγt” (Janssen Pharmaceutica NV, priority 2012, dated 2016).)
